Measurements reported in ChEMBL document CHEMBL1944550, “In vitro and in silico studies on substrate recognition and acceptance of human PKMYT1, a Cdk1 inhibitory kinase” (Bioorg Med Chem Lett, 2012).
Calls of active or inactive are those of the source. The calls are words filed in the database; no cut-off is given here. Residues, ends and D or L forms follow the SMILES beside them.

Tests used:
[1] = biological target: T1, Membrane-associated tyrosine- and threonine-specific cdc2-inhibitory kinase (Homo sapiens, UniProt Q99640); test: Activity at full length human Myt1 expressed in human HEK293 cells at 10 uM after 30 mins by fluorescence polarization immunoassay
T1 sequence (Q99640 whole entry): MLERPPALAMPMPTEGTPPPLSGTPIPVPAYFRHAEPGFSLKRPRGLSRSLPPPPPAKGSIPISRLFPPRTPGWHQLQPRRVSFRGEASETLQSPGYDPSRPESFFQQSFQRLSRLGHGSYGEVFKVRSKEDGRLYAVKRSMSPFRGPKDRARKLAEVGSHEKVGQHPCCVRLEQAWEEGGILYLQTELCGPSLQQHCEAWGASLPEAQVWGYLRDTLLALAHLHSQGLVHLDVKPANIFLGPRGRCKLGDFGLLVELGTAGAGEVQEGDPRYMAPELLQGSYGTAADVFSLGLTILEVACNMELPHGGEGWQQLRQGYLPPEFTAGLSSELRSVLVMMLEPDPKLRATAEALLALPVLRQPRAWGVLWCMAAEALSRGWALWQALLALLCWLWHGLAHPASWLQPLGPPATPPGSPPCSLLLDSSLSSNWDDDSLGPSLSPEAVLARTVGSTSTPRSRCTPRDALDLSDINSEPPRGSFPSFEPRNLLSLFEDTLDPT

[2] = biological target: T2, Membrane-associated tyrosine- and threonine-specific cdc2-inhibitory kinase (Homo sapiens) (UniProt Q99640); test: Activity at full length human Myt1 expressed in human HEK293 cells assessed as Cdk1 phosphorylation at Try15 at 10 uM after 30 mins by fluorescence polarization immunoassay
T2 sequence (whole entry): T1 sequence (Q99640 whole entry)

[3] = biological target: T2, Membrane-associated tyrosine- and threonine-specific cdc2-inhibitory kinase (Homo sapiens); test: Activity at full length human Myt1 expressed in human HEK293 cells assessed as Cdk1 phosphorylation at Thr14 at 10 uM after 30 mins by fluorescence polarization immunoassay
[4] = biological target: T2, Membrane-associated tyrosine- and threonine-specific cdc2-inhibitory kinase (Homo sapiens); test: Activity at human Myt1 (75 to 362) expressed in Escherichia coli BL21 (DE3) cells assessed as Cdk1 phosphorylation at Try15 at 10 uM after 30 mins by fluorescence polarization immunoassay
[5] = biological target: T2, Membrane-associated tyrosine- and threonine-specific cdc2-inhibitory kinase (Homo sapiens); test: Activity at human Myt1 (75 to 362) expressed in Escherichia coli BL21 (DE3) cells assessed as Cdk1 phosphorylation at Thr14 at 10 uM after 30 mins by fluorescence polarization immunoassay
[6] = biological target: T1, Membrane-associated tyrosine- and threonine-specific cdc2-inhibitory kinase; test: Competitive inhibition of human Myt1 by TR-FRET assay

Compound | Activity [2] | Activity [3] | Activity [4] | Activity [5] | IC50 [6] | EC50 [1]
CC[C@H](C)[C@H](NC(=O)[C@H](CCCCN)NC(=O)[C@@H](N)CCC(N)=O)C(=O)NCC(=O)N[C@@H](CCC(=O)O)C(=O)NCC(=O)N[C@H](C(=O)N[C@@H](Cc1ccc(OP(=O)(O)O)cc1)C(=O)NCC(=O)N[C@H](C(=O)N[C@H](C(=O)N[C@@H](Cc1ccc(O)cc1)C(=O)N[C@@H](CCCCN)C(=O)N[C@@H](CS)C(=O)O)C(C)C)C(C)C)[C@@H](C)O (HELM PEPTIDE1{Q.K.I.G.E.G.T.[O=C([C@H](Cc1ccc(OP(=O)(O)O)cc1)N[*:1])[*:2]].G.V.V.Y.K.C}$$$$V2.0) | inactive | inactive | inactive | inactive |  | 18 nM
H-QKIGEGTYGVVYKC-OH | inactive | inactive | inactive | inactive |  | 
CC[C@H](C)[C@H](NC(=O)[C@H](CCCCN)NC(=O)[C@@H](N)CCC(N)=O)C(=O)NCC(=O)N[C@@H](CCC(=O)O)C(=O)NCC(=O)N[C@H](C(=O)N[C@@H](Cc1ccc(OP(=O)(O)O)cc1)C(=O)NCC(=O)N[C@H](C(=O)N[C@H](C(=O)N[C@@H](Cc1ccc(O)cc1)C(=O)N[C@@H](CCCCN)C(=O)N[C@@H](CS)C(=O)O)C(C)C)C(C)C)[C@@H](C)OP(=O)(O)O (HELM PEPTIDE1{Q.K.I.G.E.G.[C[C@@H](OP(=O)(O)O)[C@H](N[*:1])C(=O)[*:2]].[O=C([C@H](Cc1ccc(OP(=O)(O)O)cc1)N[*:1])[*:2]].G.V.V.Y.K.C}$$$$V2.0) | inactive | inactive | inactive | inactive |  | 

Second part, led by results:

Activity [2] | Activity [3] | Activity [4] | Activity [5] | IC50 [6] | Compound | EC50 [1]
inactive | inactive | inactive | inactive |  | H-EKIGEGTYGVVYKC-OH | 
inactive | inactive | inactive | inactive |  | CC[C@H](C)[C@H](NC(=O)[C@H](CCCCN)NC(=O)[C@@H](N)CCC(N)=O)C(=O)NCC(=O)N[C@@H](CCC(=O)O)C(=O)NCC(=O)N[C@H](C(=O)N[C@@H](Cc1ccc(O)cc1)C(=O)NCC(=O)N[C@H](C(=O)N[C@H](C(=O)N[C@@H](Cc1ccc(O)cc1)C(=O)N[C@@H](CCCCN)C(=O)N[C@@H](CS)C(=O)O)C(C)C)C(C)C)[C@@H](C)OP(=O)(O)O (HELM PEPTIDE1{Q.K.I.G.E.G.[C[C@@H](OP(=O)(O)O)[C@H](N[*:1])C(=O)[*:2]].Y.G.V.V.Y.K.C}$$$$V2.0) | 
 |  |  |  | 7 nM | CCN(CC)CCOc1ccc(Nc2ncc3cc(-c4c(Cl)cccc4Cl)c(=O)n(C)c3n2)cc1 [PD-0166285] | 
